Test systems include CCRF-CEM leukemia; DU-145 prostate; HCT-116 colon; HCT-15 colon; MDA-N; OVCAR-3 ovarian; SNB-75 CNS; U251 CNS.
Common to all, as to experiment: DTP human tumour cell line panel, 48 h

The results in this text go back to PubChem BioAssay (NCI).

Structures are written as SMILES.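 Method: 48-hour compound exposure of cells in 96-well plates, five concentrations, linear interpolation of endpoints. GI50 is the concentration that inhibits growth by half. TGI: total growth inhibition.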 Some results are limits rather than exact numbers.

Broadly, the TGI is the concentration giving total growth inhibition. Consider `Oc1ccc(-c2nc(-c3cccnc3)c(-c3ccc(F)cc3)[nH]2)cc1`, for which the TGI turned out to be 42.1 µM in the assay with CCRF-CEM leukemia; 63.1 µM with DU-145 prostate; 32.9 µM with HCT-116 colon; 64.5 µM in the assay on HCT-15 colon; 37.5 µM in the assay on MDA-N; 31.1 µM in the assay with OVCAR-3 ovarian. The TGI was 35 µM with SNB-75 CNS and 32.9 µM in the assay on U251 CNS.

Regarding `CCC1(O)CC2CC(=O)OC2C1O` (configuration not stated), the TGI in the assay with CCRF-CEM leukemia is 25.7 µM; in the assay on DU-145 prostate it was above 100 µM; with HCT-15 colon, above 100 µM; with MDA-N, above 100 µM; in the assay with OVCAR-3 ovarian, above 100 µM; with SNB-75 CNS, above 100 µM. Also, in the assay with U251 CNS, the TGI is above 100 µM.

Consider `O=[N+]([O-])C(=C1NCCN1)/C(Cl)=C(\Cl)Br`, for which the concentration for total growth inhibition (TGI) with CCRF-CEM leukemia is 28.5 µM; in the assay on DU-145 prostate, above 100 µM; with HCT-116 colon it was above 73.2 µM; with HCT-15 colon, 7.93 µM; in the assay on MDA-N, above 100 µM; with OVCAR-3 ovarian, 38.7 µM. Further, the total growth inhibition concentration (TGI) in the assay on SNB-75 CNS is above 86.3 µM; with U251 CNS, above 100 µM.

Consider `Cc1cccc(/C=N/NC(=S)Nc2ccccc2)n1`, for which the total growth inhibition concentration (TGI) with CCRF-CEM leukemia was above 23.3 µM; in the assay with DU-145 prostate it was above 67.7 µM; with HCT-15 colon it was above 38.4 µM; in the assay with MDA-N it was above 100 µM; in the assay on OVCAR-3 ovarian, 13.6 µM; in the assay on SNB-75 CNS, 32.3 µM. This compound registered a TGI in the assay on U251 CNS above 54.9 µM.

For the compound `CC1(C)N=C(/C(Cl)=[N+](/[O-])C(=O)c2ccc(F)cc2)C(C)(C)N1O`, the TGI with CCRF-CEM leukemia came out at 12.8 µM; with DU-145 prostate, 78.7 µM; in the assay on HCT-116 colon, 30.6 µM; in the assay with HCT-15 colon, 26.9 µM; in the assay with MDA-N it was 29.9 µM; in the assay on OVCAR-3 ovarian, 31.2 µM. The compound further came in with a TGI in the assay on SNB-75 CNS of 32.7 µM.

As to `O=C(NNC(=O)c1ccccc1SSc1ccccc1C(=O)NNC(=O)c1ccccc1S)c1ccccc1S`, the TGI in the assay with CCRF-CEM leukemia was 24.4 µM; in the assay with DU-145 prostate it was above 54.7 µM; in the assay with HCT-116 colon, above 65.1 µM; with HCT-15 colon, 61.5 µM; in the assay on MDA-N it was above 100 µM; with OVCAR-3 ovarian, above 100 µM. Further, the TGI was above 49.8 µM in the assay with SNB-75 CNS and above 71.9 µM in the assay on U251 CNS.

Take `O=C(CCC(=O)c1ccc(Cl)cc1)NO`: the TGI with CCRF-CEM leukemia, with DU-145 prostate, with HCT-116 colon, in the assay with HCT-15 colon, in the assay on MDA-N and in the assay on OVCAR-3 ovarian was above 100 µM throughout. Further, the total growth inhibition concentration (TGI) in the assay on SNB-75 CNS and in the assay with U251 CNS was above 100 µM throughout.

As to `CC1=C(C)[C@@]2(C)O[C@@]2(C)O[C@@]2(C)O[C@@]12C`, the TGI in the assay with DU-145 prostate, in the assay with HCT-116 colon, in the assay on HCT-15 colon, in the assay with MDA-N, in the assay on SNB-75 CNS and with U251 CNS was above 100 µM throughout.

For `C=C(Br)C(C)(Cl)CCC(Br)C(C)(C)Cl` (configuration not stated), the TGI is 44.5 µM with CCRF-CEM leukemia; above 100 µM in the assay on DU-145 prostate; above 100 µM with HCT-116 colon; above 100 µM with HCT-15 colon; above 100 µM with MDA-N; 35.6 µM in the assay on OVCAR-3 ovarian. This compound also showed a TGI in the assay on U251 CNS above 100 µM.

For the compound `COC(=O)C1CCC(=O)N1C(c1ccccc1)c1ccc(OC)c(OC)c1` (configuration not stated), the TGI in the assay with DU-145 prostate, in the assay with HCT-116 colon, in the assay on HCT-15 colon, in the assay with MDA-N, with OVCAR-3 ovarian and with SNB-75 CNS was above 100 µM throughout. In the assay on U251 CNS, the TGI is above 100 µM.

In the case of `O=C(O)CN(CC(=O)O)C1CCCCC1N(CC(=O)O)CC(=O)NCCN=C=S` (configuration not stated), the TGI in the assay with CCRF-CEM leukemia, in the assay on DU-145 prostate, in the assay on HCT-116 colon, with HCT-15 colon, in the assay with MDA-N and in the assay with OVCAR-3 ovarian was above 100 µM in each case. The same compound registered a total growth inhibition concentration (TGI) in the assay with U251 CNS above 100 µM.

Consider `COc1ccc2c(=O)c(O)c(-c3ccc(OC)c(OC)c3)oc2c1`, for which the TGI in the assay with CCRF-CEM leukemia is above 100 µM; with DU-145 prostate, above 100 µM; with HCT-116 colon it was above 100 µM; in the assay on HCT-15 colon, above 100 µM; in the assay with MDA-N, above 100 µM; with OVCAR-3 ovarian, 11.9 µM. The compound further gave a TGI in the assay on U251 CNS above 100 µM.

As for `C=C(C1=CC(=O)C(C)(C)O1)[C@@H]1CC=C([C@@H]2CC[C@H]3[C@@]2(C)CC[C@H]2C(C)(C)C(=O)[C@H](O)C[C@]32C)[C@H](O)O1`, the TGI was found to be 2.91 µM in the assay on DU-145 prostate; 3 µM in the assay on HCT-116 colon; 5.16 µM in the assay with HCT-15 colon; 3.58 µM in the assay with MDA-N; 2.4 µM with OVCAR-3 ovarian; 25.1 µM in the assay with SNB-75 CNS. Also, the TGI in the assay on U251 CNS was 3.06 µM.

As a reminder, the GI50 is the concentration giving 50% growth inhibition. Turning to `CCCNC1=C2CC(C)CC(OC)[C@@H](O)[C@H](C)/C=C(\C)C(OC(N)=O)C(OC)/C=C\C=C(/C)C(=O)NC(=CC1=O)C2=O` (some centres not stated), the GI50 is 0.309 µM in the assay on CCRF-CEM leukemia; 14.8 µM in the assay with DU-145 prostate; 0.0589 µM with HCT-116 colon; 0.46 µM in the assay on HCT-15 colon; 0.0757 µM with MDA-N; 0.613 µM with OVCAR-3 ovarian. Besides, in the assay with U251 CNS, the GI50 is 29.5 µM. For the same compound, the concentration for total growth inhibition (TGI) in the assay on CCRF-CEM leukemia is 3.13 µM; in the assay with DU-145 prostate, 65.5 µM; in the assay with HCT-116 colon, above 100 µM; in the assay on HCT-15 colon, 28.1 µM; in the assay on MDA-N it was 17.1 µM; with OVCAR-3 ovarian, 28.8 µM. For the same compound, in the assay on U251 CNS, the total growth inhibition concentration (TGI) is above 100 µM.

On to `C(/c1ccco1)=c1/nc(-c2ccccc2)n2c1nc1ccccc12`, for which the TGI is 46.8 µM with CCRF-CEM leukemia; above 100 µM with DU-145 prostate; 71.1 µM in the assay on HCT-116 colon; above 100 µM in the assay with HCT-15 colon; 54.4 µM in the assay with MDA-N; above 100 µM in the assay on OVCAR-3 ovarian. The TGI with U251 CNS is above 100 µM.

As for `O=C(O)c1cccc2c1/C(=N/Nc1ccccc1)CC2`, the TGI in the assay with CCRF-CEM leukemia, with DU-145 prostate, in the assay with HCT-116 colon, in the assay with HCT-15 colon, in the assay with MDA-N and with OVCAR-3 ovarian was above 100 µM each time. In addition, the total growth inhibition concentration (TGI) in the assay with U251 CNS was above 100 µM.
